From publication PMC9386376, “Discovery of spirooxindole-derived small-molecule compounds as novel HDAC/MDM2 dual inhibitors and investigation of their anticancer activity” (Frontiers in Oncology, 2022)

How the values were obtained:
[1] = target: HDAC1 (Homo sapiens, UniProt Q13547); test: HTRF enzyme inhibition assay, HDAC1; conditions: for inhibition at 1 µM: read-out: % enzyme inhibition HDAC; for % enzyme inhibition HDAC: compound at 1 μM, HTRF, method names HDAC1 protein
[2] = target: T1, GST-tagged MDM2 (Homo sapiens, UniProt Q00987); test: HTRF enzyme inhibition assay, MDM2; format: biochemical; conditions: compound at 1 μM
T1 construct: purchased Cisbio Co. Ltd
Protocol: The enzymatic assay of test compounds is using the HTRF-based method provided by Cisbio Co. Ltd. In brief, the target compounds to be tested were prepared into samples with a concentration of 1 μM, which was added to GST-tagged MDM2 and HDAC1 proteins, respectively, then biotinylated substrate p53 peptide and HTRF detection reagents were added. The data obtained were processed by the ratio method, and the inhibition rates of MDM2 and HDAC1 were calculated. The detailed experimental procedures are according to the manufacturer’s protocols.

T1 sequence (Q00987 whole entry): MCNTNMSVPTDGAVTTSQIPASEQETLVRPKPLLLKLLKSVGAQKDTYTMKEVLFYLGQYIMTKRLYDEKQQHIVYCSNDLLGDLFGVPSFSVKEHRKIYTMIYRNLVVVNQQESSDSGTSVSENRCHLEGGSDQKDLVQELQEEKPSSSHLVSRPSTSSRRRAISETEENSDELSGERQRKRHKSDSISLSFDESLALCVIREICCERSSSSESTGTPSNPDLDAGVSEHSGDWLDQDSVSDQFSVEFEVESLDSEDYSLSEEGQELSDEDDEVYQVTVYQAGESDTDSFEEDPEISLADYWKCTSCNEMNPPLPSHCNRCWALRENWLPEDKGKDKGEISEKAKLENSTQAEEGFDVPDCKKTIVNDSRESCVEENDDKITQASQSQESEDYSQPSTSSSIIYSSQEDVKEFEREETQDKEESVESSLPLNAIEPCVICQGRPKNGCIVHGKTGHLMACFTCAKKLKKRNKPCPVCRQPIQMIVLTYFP
Chain of HDAC1 (Q13547 whole entry): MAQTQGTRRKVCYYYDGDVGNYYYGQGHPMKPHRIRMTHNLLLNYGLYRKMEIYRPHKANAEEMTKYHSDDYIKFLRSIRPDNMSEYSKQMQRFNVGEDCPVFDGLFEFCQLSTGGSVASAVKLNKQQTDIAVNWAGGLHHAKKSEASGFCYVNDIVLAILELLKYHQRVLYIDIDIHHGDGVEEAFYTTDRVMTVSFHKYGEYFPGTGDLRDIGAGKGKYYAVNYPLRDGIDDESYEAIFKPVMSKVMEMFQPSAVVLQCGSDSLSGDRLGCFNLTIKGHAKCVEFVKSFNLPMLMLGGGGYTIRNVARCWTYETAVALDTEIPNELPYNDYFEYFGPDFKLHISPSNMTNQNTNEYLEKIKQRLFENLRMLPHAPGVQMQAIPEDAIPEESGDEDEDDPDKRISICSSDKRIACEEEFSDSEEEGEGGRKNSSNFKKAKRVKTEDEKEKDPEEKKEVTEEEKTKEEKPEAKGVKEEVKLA

Compound: O=C(CCCCCCC(=O)Nc1ccc([C@@H]2[C@H]3CSCN3[C@]3(C(=O)Nc4ccccc43)[C@H]2C(=O)c2ccccc2)cc1)NO [7a, N^1-(4-((3R,6'S,7'R,7a'S)-6'-benzoyl-2-oxo-1',6',7',7a'-tetrahydro-3'H-spiro[indoline-3,5'-pyrrolo[1,2-c]thiazol]-7'-yl)phenyl)-N^8-hydroxyoctanediamide]
- inhibition at 1 µM [1]: 69%
- melting point: 144.7 to 146.1 °C
- inhibition at 1 µM [2]: 39%

Compound: Cc1ccc2c(c1)[C@@]1(C(=O)N2)[C@@H](C(=O)c2ccccc2)[C@H](c2ccc(NC(=O)CCCCCCC(=O)NO)cc2)[C@H]2CSCN21 [7b, N^1-(4-((3R,6'S,7'R,7a'S)-6'-benzoyl-5-methyl-2-oxo-1',6',7',7a'-tetrahydro-3'H-spiro[indoline-3,5'-pyrrolo[1,2-c]thiazol]-7'-yl)phenyl)-N^8-hydroxyoctanediamide]
- inhibition at 1 µM [1]: 71%
- melting point: 144.2 to 145.6 °C
- inhibition at 1 µM [2]: 45%

Compound: O=C(CCCCCCC(=O)Nc1ccc([C@@H]2[C@H]3CSCN3[C@]3(C(=O)Nc4ccc(F)cc43)[C@H]2C(=O)c2ccccc2)cc1)NO [7c, N^1-(4-((3R,6'S,7'R,7a'S)-6'-benzoyl-5-fluoro-2-oxo-1',6',7',7a'-tetrahydro-3'H-spiro[indoline-3,5'-pyrrolo[1,2-c]thiazol]-7'-yl)phenyl)-N^8-hydroxyoctanediamide]
- inhibition at 1 µM [1]: 68%
- melting point: 144.3 to 145.7 °C
- inhibition at 1 µM [2]: 51%

Compound: O=C(CCCCCCC(=O)Nc1ccc([C@@H]2[C@H]3CSCN3[C@]3(C(=O)Nc4ccc(Cl)cc43)[C@H]2C(=O)c2ccccc2)cc1)NO [7d, N^1-(4-((3R,6'S,7'R,7a'S)-6'-benzoyl-5-chloro-2-oxo-1',6',7',7a'-tetrahydro-3'H-spiro[indoline-3,5'-pyrrolo[1,2-c]thiazol]-7'-yl)phenyl)-N^8-hydroxyoctanediamide]
- inhibition at 1 µM [1]: 67%
- melting point: 154.6 to 156.2 °C
- inhibition at 1 µM [2]: 49%

Compound: O=C(CCCCCCC(=O)Nc1ccc([C@@H]2[C@H]3CSCN3[C@]3(C(=O)Nc4ccc(Br)cc43)[C@H]2C(=O)c2ccccc2)cc1)NO [7e, N^1-(4-((3R,6'S,7'R,7a'S)-6'-benzoyl-5-bromo-2-oxo-1',6',7',7a'-tetrahydro-3'H-spiro[indoline-3,5'-pyrrolo[1,2-c]thiazol]-7'-yl)phenyl)-N^8-hydroxyoctanediamide]
- inhibition at 1 µM [1]: 72%
- melting point: 146.8 to 148 °C
- inhibition at 1 µM [2]: 48%

Compound: COc1ccc2c(c1)NC(=O)[C@@]21[C@@H](C(=O)c2ccccc2)[C@H](c2ccc(NC(=O)CCCCCCC(=O)NO)cc2)[C@H]2CSCN21 [7k, N^1-(4-((3R,6'S,7'R,7a'S)-6'-benzoyl-6-methoxy-2-oxo-1',6',7',7a'-tetrahydro-3'H-spiro[indoline-3,5'-pyrrolo[1,2-c]thiazol]-7'-yl)phenyl)-N^8-hydroxyoctanediamide]
- inhibition at 1 µM [1]: 70%
- inhibition at 1 µM [2]: 54%

Compound: N^1-(4-((3R,6'S,7'R,7a'S)-6-chloro-2-oxo-6'-(thiophene-2-carbonyl)-1',6',7',7a'-tetrahydro-3'H-spiro[indoline-3,5'-pyrrolo[1,2-c]thiazol]-7'-yl)phenyl)-N^6-hydroxyadipamide [15c]
- % enzyme inhibition HDAC [1]: 70%
- % enzyme inhibition MDM2 [2]: 49%

Compound: N^1-(4-((3R,6'S,7'R,7a'S)-6-chloro-6'-(4-(dimethylamino)benzoyl)-2-oxo-1',6',7',7a'-tetrahydro-3'H-spiro[indoline-3,5'-pyrrolo[1,2-c]thiazol]-7'-yl)phenyl)-N^6-hydroxyadipamide [7y]
- % enzyme inhibition HDAC [1]: 71%
- % enzyme inhibition MDM2 [2]: 54%

Compound: N^1-(4-((3R,6'S,7'R,7a'S)-6-chloro-6'-(furan-2-carbonyl)-2-oxo-1',6',7',7a'-tetrahydro-3'H-spiro[indoline-3,5'-pyrrolo[1,2-c]thiazol]-7'-yl)phenyl)-N^6-hydroxyadipamide [15b]
- % enzyme inhibition HDAC [1]: 70%
- % enzyme inhibition MDM2 [2]: 48%
